Assay: method code SF-AS, from DOI: 10.1080/02772249909358822

| SMILES | logP |
| --- | --- |
| CCOP(=S)(OCC)ON=C(C#N)c1csc2ccccc12 | 2.56 |
| COc1ccc(C(C#N)=NOP(=O)(OC(C)C)OC(C)C)cc1OC | -0.38 |
| CCOP(=S)(OCC)ON=C(C#N)c1ccc(Cl)cc1 | 0.47 |
| CCCOP(=O)(OCCC)ON=C(C#N)c1csc2ccccc12 | 1.67 |
| CC(C)OP(=O)(ON=C(C#N)c1ccc(Cl)cc1)OC(C)C | -0.2 |
| COC(=O)c1oc2ccccc2c1C(C#N)=NOP(=O)(OC(C)C)OC(C)C | 1.36 |
| CCOP(=S)(OCC)ON=C(C#N)c1ccc(F)cc1 | 0.35 |
| CCOP(=O)(OCC)ON=C(C#N)c1csc2ccccc12 | 0.56 |
| CCOP(=S)(OCC)ON=C(C#N)c1ccc(OC)c(OC)c1 | -0.19 |
| COP(=O)(OC)ON=C(C#N)c1ccc(F)cc1 | -1.08 |
| CC(C)OP(=O)(O/N=C(/C#N)c1ccccc1)OC(C)C | 0.06 |
| CCCCOP(=O)(OCCCC)ON=C(C#N)c1csc2ccccc12 | 2.73 |
| COc1ccc(C(C#N)=NOP(=S)(OC(C)C)OC(C)C)cc1OC | 0.47 |
| CC(C)OP(=S)(O/N=C(/C#N)c1ccccc1)OC(C)C | 2.07 |
| COP(=O)(OC)O/N=C(/C#N)c1ccccc1 | -1.01 |
| CC(C)OP(=O)(ON=C(C#N)c1ccc(F)cc1)OC(C)C | -0.43 |
| COP(=O)(OC)ON=C(C#N)c1csc2ccccc12 | 0.76 |
| COP(=S)(OC)ON=C(C#N)c1csc2ccccc12 | 1.94 |
| CC(C)OP(=O)(ON=C(C#N)c1csc2ccccc12)OC(C)C | 1.56 |

— the SangsterLogP compilation
